Experimental data: patent US8263606B2 (Xenon Pharmaceuticals Inc., priority 2008, dated 2012)
Where a name gives a salt, the structure may show the parent alone.

Tests used:
CYP3A4 = CYP3A4 (Homo sapiens, UniProt P08684); test: Cytochrome P450 (CYP450) Inhibition Assay, CYP3A4 (Vivid fluorescence, BOMCC substrate); settings: human, P450 Baculosomes (recombinant CYP3A4), probe BOMCC (Vivid substrate)
sodium channel = test: Guanidine influx assay (14C-guanidine radiotracer flux, in vitro); assay type: cell-based, human or rat; settings: guanidine influx assay using a known cell line that expresses a sodium channel
How it was run: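 Human or rat sodium channels stably expressed in endogenous or recombinant cells, plated ~100,000 cells/well for 20-24 h at 37 °C. Cells were treated with test agent in low-sodium choline HEPES saline plus aconitine and 14C-guanidine at ambient temperature, washed, and counted by scintillation; IC50 from 4-parameter logistic fit.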

Sequence of CYP3A4 (P08684 whole entry): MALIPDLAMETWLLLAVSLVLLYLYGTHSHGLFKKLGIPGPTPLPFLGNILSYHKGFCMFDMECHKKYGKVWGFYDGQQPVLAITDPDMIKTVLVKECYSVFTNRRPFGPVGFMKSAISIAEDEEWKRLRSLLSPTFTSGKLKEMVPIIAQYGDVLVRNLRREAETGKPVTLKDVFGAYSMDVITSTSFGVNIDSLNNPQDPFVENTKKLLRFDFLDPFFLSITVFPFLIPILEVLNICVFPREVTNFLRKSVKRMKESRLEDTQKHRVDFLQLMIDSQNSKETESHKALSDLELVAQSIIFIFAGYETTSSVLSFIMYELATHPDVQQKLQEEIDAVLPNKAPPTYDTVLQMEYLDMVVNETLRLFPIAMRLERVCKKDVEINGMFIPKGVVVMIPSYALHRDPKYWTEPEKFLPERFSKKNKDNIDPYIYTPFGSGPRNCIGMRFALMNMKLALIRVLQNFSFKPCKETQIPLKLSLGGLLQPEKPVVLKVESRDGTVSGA

SMILES	inhibition at 10 µM (CYP3A4) [%]	IC50 (sodium channel; activity level class) [nM]	IC50 (sodium channel) [nM]
O=C1N(C[C@H]2CCCO2)c2ccccc2C12COc1cc3c(cc12)COCO3 (stereo partly drawn) [Example 2.31, 1′-[(2R)-tetrahydrofuran-2-ylmethyl]-4H-spiro[furo[3,2-g][1,3]benzodioxine-6,3′-indol]-2′(1′H)-one]	> 50	1000 to 10000	
Cn1nnc2cc(CN3C(=O)C4(COc5cc6c(cc54)OCCO6)c4ccccc43)ccc21 (stereo not shown) [Example 7.23, 1′-[(1-methyl-1H-benzotriazol-5-yl)methyl]-2,3-dihydrospiro[furo[2,3-g][1,4]-benzodioxine-8,3′-indol]-2′(1′H)-one]	< 50	1 to 100	
CN(C)S(=O)(=O)c1cccc(CN2C(=O)C3(COc4cc5c(cc43)OCCO5)c3ccccc32)c1 (stereo not shown) [Example 7.16, N,N-dimethyl-3-[(2′-oxo-2,3-dihydrospiro[furo[2,3-g][1,4]benzodioxine-8,3′-indol]-1′-(2′H)-yl)methyl]benzenesulfonamide]	> 50	1000 to 10000	
CC(C)(C)OC(=O)NC(CCN1C(=O)C2(COc3cc4c(cc32)OCO4)c2ccccc21)C1CC1 (stereo not shown) [Example 4.78, tert-butyl [1-cyclopropyl-3-(2′-oxospiro[furo[2,3-f][1,3]benzodioxole-7,3′-indol]-1′(2′H)-yl)propyl]carbamate]	> 50	1 to 100	
COc1ccc(CN2C(=O)C3(COc4cc5c(cc43)OCCO5)c3c2ccc2ncsc32)cc1 (stereo not shown) [Example 2.66, 6′-(4-methoxybenzyl)-2,3-dihydrospiro[furo[2,3-g][1,4]benzodioxine-8,8′-[1,3]thiazolo[5,4-e]indol]-7′(6′H)-one]	> 50	100 to 1000	
COc1cc2c(cc1F)C1(CO2)C(=O)N(CC2CCOCC2)c2ccccc21 (stereo not shown) [Example 9.29, 5-fluoro-6-methoxy-1-(tetrahydro-2H-pyran-4-ylmethyl)spiro[1-benzofuran-3,3′-indol]-2′(1′H)-one]	< 50	1000 to 10000	
O=C1N(Cc2ccccc2)c2ccccc2C12COc1cc3c(cc12)CCO3 (stereo not shown) [Example 4.14, 1′-benzyl-5,6-dihydrospiro[benzo[1,2-b:5,4-b′]difuran-3,3′-indol]-2′(1′H)-one]	> 50	1 to 100	
CCC(=O)CN1C(=O)[C@@]2(COc3cc4c(cc32)OCCO4)c2ccccc21 [Example 4.109, (S)-1′-(2-oxobutyl)-3,7-dihydro-2H-spiro[benzofuro[5,6-b][1,4]dioxine-8,3′-indolin]-2′-one]	< 50	1 to 100	
Cc1cc2c(cc1C)C1(CO2)C(=O)N(CC2CCCCO2)c2ccccc21 (stereo not shown) [Example 6.2, 5,6-dimethyl-1′-(tetrahydro-2H-pyran-2-ylmethyl)spiro[1-benzofuran-3,3′-indol]-2′(1′H)-one]	> 50	100 to 1000	
O=C1N(Cc2cccc(S(=O)(=O)N3CCOCC3)c2)c2ccccc2C12COc1cc3c(cc12)OCCO3 (stereo not shown) [Example 7.17, 1′-[3-(morpholin-4-ylsulfonyl)benzyl]-2,3-dihydrospiro[furo[2,3-g][1,4]benzodioxine-8,3′-indol]-2′(1′H)-one]	> 50	1000 to 10000	
O=C1N(Cc2ccc(F)cc2Cl)c2ccccc2C12COc1cc3c(cc12)OCCO3 (stereo not shown) [Example 7.22, 1′-(2-chloro-4-fluorobenzyl)-2,3-dihydrospiro[furo[2,3-g][1,4]benzodioxine-8,3′-indol]-2′(1′H)-one]	< 50	1 to 100	
O=C1N(Cc2ncccc2Cl)c2ccccc2C12COc1cc3c(cc12)OCCO3 (stereo not shown) [Example 4.112, 1-[(3-chloropyridin-2-yl)methyl]-2,3-dihydrospiro[furo[2,3-g][1,4]benzodioxine-8,3′-indol]-2′(1′H)-one]	> 50	1 to 100	
Nc1cccnc1CN1C(=O)C2(COc3cc4c(cc32)OCCO4)c2ccccc21 (stereo not shown) [Example 11.97, 1′-[(3-aminopyridin-2-yl)methyl]-2,3-dihydrospiro[furo[2,3-g][1,4]benzodioxine-8,3′-indol]-2′(1′H)-one hydrobromide]	> 50		1 to 100

Next, values leading:

inhibition at 10 µM (CYP3A4) [%]	IC50 (sodium channel; activity level class) [nM]	IC50 (sodium channel) [nM]	SMILES
< 50		1000 to 10000	O=C1N(CC2CCNCC2)c2ccccc2C12COc1cc3c(cc12)OCCO3 (stereo not shown) [Example 11.99, 1-(piperidin-4-ylmethyl)-2,3-dihydrospiro[furo[2,3-g][1,4]benzodioxine-8,3′-indol]-2′(1′H)-one hydrochloride]
< 50		100 to 1000	O=C1N(Cc2cccc[n+]2[O-])c2ccccc2C12COc1cc3c(cc12)OCCO3 (stereo not shown) [Example 11.95, 1′-[(1-oxidopyridin-2-yl)methyl]-2,3-dihydrospiro[furo[2,3-g][1,4]benzodioxine-8,3′-indol]-2′(1′H)-one]
< 50		1000 to 10000	O=C1N(CC2CCNC2)c2ccccc2C12COc1cc3c(cc12)CCO3 (stereo not shown) [Example 11.61, 1′-(pyrrolidin-3-ylmethyl)-5,6-dihydrospiro[benzo[1,2-b:5,4-b′]difuran-3,3′-indol]-2′(1′H)-one]
< 50		100 to 1000	O=C(Nc1ccccc1)c1ccc(CN2C(=O)C3(COc4cc5c(cc43)CCO5)c3ccccc32)cc1 (stereo not shown) [Example 12.27, 4-[(2′-oxo-5,6-dihydrospiro[benzo[1,2-b:5,4-b′]difuran-3,3′-indol]-1′(2′H)-yl)methyl]-N-phenylbenzamide]
> 50		100 to 1000	CN1CCOC(CN2C(=O)C3(COc4cc5c(cc43)CCO5)c3ccccc32)C1 (stereo not shown) [Example 11.41, 1′-[(4-methylmorpholin-2-yl)methyl]-5,6-dihydrospiro[benzo[1,2-b:5,4-b′]difuran-3,3′-indol]-2′(1′H)-one]
> 50		100 to 1000	C[C@H](NC(=O)c1cccc(CN2C(=O)C3(COc4cc5c(cc43)CCO5)c3ccccc32)c1)C1CCCCC1 (stereo partly drawn) [Example 12.6, N-[(1S)-1-cyclohexylethyl]-3-[(2′-oxo-5,6-dihydrospiro[benzo[1,2-b:5,4-b′]difuran-3,3′-indol]-1′(2′H)-yl)methyl]benzamide]
< 50		100 to 1000	O=C1N(Cc2ccc(-c3ccccc3F)cc2)c2ccccc2C12COc1cc3c(cc12)CCO3 (stereo not shown) [Example 11.17, 1′-[(2′-fluorobiphenyl-4-yl)methyl]-5,6-dihydrospiro[benzo[1,2-b:5,4-b′]difuran-3,3′-indol]-2′(1′H)-one]
< 50		1000 to 10000	CN1CCC(CN2C(=O)C3(COc4cc5c(cc43)OCCO5)c3ccccc32)CC1 (stereo not shown) [Example 11.101, 1-[(1-methylpiperidin-4-yl)methyl]-2,3-dihydrospiro[furo[2,3-g][1,4]benzodioxine-8,3′-indol]-2′(1′H)-one hydrochloride]
> 50		1 to 100	O=C1N(C[C@@H]2CCCO2)c2ccccc2[C@@]12COc1cc3c(cc12)CCO3 [Example 11.68, (3R)-1-[(2S)-tetrahydrofuran-2-ylmethyl]-5,6-dihydrospiro[benzo[1,2-b:5,4-b′]difuran-3,3′-indol]-2′(1′H)-one]
> 50		1 to 100	CN1CCC(CN2C(=O)C3(COc4cc(F)c(F)cc43)c3ccccc32)CC1 (stereo not shown) [Example 11.112, 5,6-difluoro-1′-[(1-methylpiperidin-4-yl)methyl]spiro[1-benzofuran-3,3′-indol]-2′(1′H)-one hydrochloride]
> 50		1000 to 10000	COc1ccc(CCNC(=O)c2ccccc2CN2C(=O)C3(COc4cc5c(cc43)CCO5)c3ccccc32)cc1 (stereo not shown) [Example 12.22, N-[2-(4-methoxyphenyl)ethyl]-2-[(2′-oxo-5,6-dihydrospiro[benzo[1,2-b:5,4-b′]difuran-3,3′-indol]-1′(2′H)-yl)methyl]benzamide]
> 50		100 to 1000	Cc1noc2cc3c(cc12)C1(CO3)C(=O)N(Cc2ccc(-c3cc(N)n[nH]3)cc2)c2ccccc21 (stereo not shown) [Example 29.1, 1′-[4-(3-amino-1H-pyrazol-5-yl)benzyl]-3-methylspiro[furo[3,2-f][1,2]benzisoxazole-5,3′-indol]-2′(1′H)-one hydrochloride]
> 50		1000 to 10000	O=C(NCCc1ccc(Cl)cc1)c1ccccc1CN1C(=O)C2(COc3cc4c(cc32)CCO4)c2ccccc21 (stereo not shown) [Example 12.24, N-[2-(4-chlorophenyl)ethyl]-2-[(2′-oxo-5,6-dihydrospiro[benzo[1,2-b:5,4-b′]difuran-3,3′-indol]-1′(2′H)-yl)methyl]benzamide]
> 50		100 to 1000	O=C1N(Cc2ccc(N3CCOCC3)cc2)c2ccccc2C12COc1cc3c(cc12)CCO3 (stereo not shown) [Example 11.46, t-(4-morpholin-4-ylbenzyl)-5,6-dihydrospiro[benzo[1,2-b:5,4-b′]difuran-3,3′-indol]-2′(1′H)-one]
> 50		100 to 1000	O=C1N(C[C@H]2CCCO2)c2cccc(/C=C/c3ccc(F)cc3)c2C12COc1cc3c(cc12)CCO3 (stereo partly drawn) [Example 16.1, 4′-[(E)-2-(4-fluorophenyl)ethenyl]-1′-[(2R)-tetrahydrofuran-2-ylmethyl]-5,6-dihydrospiro[benzo[1,2-b:5,4-b′]difuran-3,3′-indol]-2′(1′H)-one]
< 50		1000 to 10000	O=C(Nc1ccc2c(c1)CCC2)c1ccc(CN2C(=O)C3(COc4cc5c(cc43)CCO5)c3ccccc32)cc1 (stereo not shown) [Example 12.32, N-(2,3-dihydro-1H-inden-5-yl)-4-[(2′-oxo-5,6-dihydrospiro[benzo[1,2-b:5,4-b′]difuran-3,3′-indol]-1′(2′H)-yl)methyl]benzamide]
